Tested on: sugarcane
Experiment: Sugarcane flowering inhibition field trials, floral induction rated on UFSCar scale
Type: in vivo
Protocol: In order to explore the activity of florpyrauxifen as flowering inhibitor in sugarcane, field studies were carried out. Florpyrauxifen-benzyl was tested at rates from 2 to 20 grams active ingredient per hectare (g ai/ha) and compared to Ethrel® 720 (Bayer), the standard treatment. The flowering inhibition effect was assessed by checking the floral induction in sugarcane through the percentage scale recommended by UFSCar (Federal University of Sao Carlos, Sao Paulo, Brazil).
Four trials were carried out in sugarcane where florpyrauxifen-benzyl (Rinskor®), applied at a rate of 2 to 20 g ai/ha, was compared to ethephon (Ethrel® 720) applied at a rate of 475 g ai/ha. Control plots of untreated sugarcane were also evaluated. Rinskor® and Ethrel® 720 were diluted in water and a single application for each study (backpack sprayer) was performed delivering 50 L of spray solution per ha at the reproductive stage of sugarcane and at a maximum 150 days before harvest. The activity of florpyrauxifen-benzyl as a flowering inhibitor was measured via assessments (Scale of flowering inhibition—see chart 1) performed at 0, 14, 30, 45, 60, 75, 90, 120, 150 days after application, or up to harvest time. The assessments were measured in sugarcane stems, rating the flowering induction according to the UFSCar scale shown below. Significance of treatment effect was evaluated with F-approximate test (α=0.1) and least square means from different treatments were compared with Tukey's test.

COc1c(Cl)ccc(-c2nc(C(=O)OCc3ccccc3)c(Cl)c(N)c2F)c1F [Rinskor, florpyrauxifen-benzyl]
% Referring to Scale (Table 1, 120 DAA, 20 g ai/ha): 12.8% | Frequency 1/1 (0%) (Table 1, 120 DAA, 20 g ai/ha): 15.0% | Frequency 2/1 (15%) (Table 1, 120 DAA, 20 g ai/ha): 85.0% | Frequency 3/1 (30%) (Table 1, 120 DAA, 20 g ai/ha): 0.0% | Frequency 4/1 (50%) (Table 1, 120 DAA, 20 g ai/ha): 0.0% | Frequency 4/2 (80%) (Table 1, 120 DAA, 20 g ai/ha): 0.0% | Frequency 4/3 (90%) (Table 1, 120 DAA, 20 g ai/ha): 0.0% | Frequency 4/4 (100%) (Table 1, 120 DAA, 20 g ai/ha): 0.0% | % Referring to Scale (Table 2, 75 DAA, 2 g ai/ha): 1.1% | Frequency 1/1 (0%) (Table 2, 75 DAA, 2 g ai/ha): 92.5% | Frequency 2/1 (15%) (Table 2, 75 DAA, 2 g ai/ha): 7.5% | Frequency 3/1 (30%) (Table 2, 75 DAA, 2 g ai/ha): 0.0% | Frequency 4/1 (50%) (Table 2, 75 DAA, 2 g ai/ha): 0.0% | Frequency 4/2 (80%) (Table 2, 75 DAA, 2 g ai/ha): 0.0% | Frequency 4/3 (90%) (Table 2, 75 DAA, 2 g ai/ha): 0.0% | Frequency 4/4 (100%) (Table 2, 75 DAA, 2 g ai/ha): 0.0% | % Referring to Scale (Table 2, 75 DAA, 5 g ai/ha): 0.8% | Frequency 1/1 (0%) (Table 2, 75 DAA, 5 g ai/ha): 95.0% | Frequency 2/1 (15%) (Table 2, 75 DAA, 5 g ai/ha): 5.0% | Frequency 3/1 (30%) (Table 2, 75 DAA, 5 g ai/ha): 0.0% | Frequency 4/1 (50%) (Table 2, 75 DAA, 5 g ai/ha): 0.0% | Frequency 4/2 (80%) (Table 2, 75 DAA, 5 g ai/ha): 0.0% | Frequency 4/3 (90%) (Table 2, 75 DAA, 5 g ai/ha): 0.0% | Frequency 4/4 (100%) (Table 2, 75 DAA, 5 g ai/ha): 0.0% | % Referring to Scale (Table 2, 75 DAA, 7 g ai/ha): 0.8% | Frequency 1/1 (0%) (Table 2, 75 DAA, 7 g ai/ha): 95.0% | Frequency 2/1 (15%) (Table 2, 75 DAA, 7 g ai/ha): 5.0% | Frequency 3/1 (30%) (Table 2, 75 DAA, 7 g ai/ha): 0.0% | Frequency 4/1 (50%) (Table 2, 75 DAA, 7 g ai/ha): 0.0% | Frequency 4/2 (80%) (Table 2, 75 DAA, 7 g ai/ha): 0.0% | Frequency 4/3 (90%) (Table 2, 75 DAA, 7 g ai/ha): 0.0% | Frequency 4/4 (100%) (Table 2, 75 DAA, 7 g ai/ha): 0.0% | % Referring to Scale (Table 2, 75 DAA, 10 g ai/ha): 0.4% | Frequency 1/1 (0%) (Table 2, 75 DAA, 10 g ai/ha): 97.5% | Frequency 2/1 (15%) (Table 2, 75 DAA, 10 g ai/ha): 2.5% | Frequency 3/1 (30%) (Table 2, 75 DAA, 10 g ai/ha): 0.0% | Frequency 4/1 (50%) (Table 2, 75 DAA, 10 g ai/ha): 0.0% | Frequency 4/2 (80%) (Table 2, 75 DAA, 10 g ai/ha): 0.0% | Frequency 4/3 (90%) (Table 2, 75 DAA, 10 g ai/ha): 0.0% | Frequency 4/4 (100%) (Table 2, 75 DAA, 10 g ai/ha): 0.0% | % Referring to Scale (Table 2, 75 DAA, 15 g ai/ha): 1.1% | Frequency 1/1 (0%) (Table 2, 75 DAA, 15 g ai/ha): 92.5% | Frequency 2/1 (15%) (Table 2, 75 DAA, 15 g ai/ha): 7.5% | Frequency 3/1 (30%) (Table 2, 75 DAA, 15 g ai/ha): 0.0% | Frequency 4/1 (50%) (Table 2, 75 DAA, 15 g ai/ha): 0.0% | Frequency 4/2 (80%) (Table 2, 75 DAA, 15 g ai/ha): 0.0% | Frequency 4/3 (90%) (Table 2, 75 DAA, 15 g ai/ha): 0.0% | Frequency 4/4 (100%) (Table 2, 75 DAA, 15 g ai/ha): 0.0% | % Referring to Scale (Table 2, 75 DAA, 20 g ai/ha): 0.8% | Frequency 1/1 (0%) (Table 2, 75 DAA, 20 g ai/ha): 95.0% | Frequency 2/1 (15%) (Table 2, 75 DAA, 20 g ai/ha): 5.0% | Frequency 3/1 (30%) (Table 2, 75 DAA, 20 g ai/ha): 0.0% | Frequency 4/1 (50%) (Table 2, 75 DAA, 20 g ai/ha): 0.0% | Frequency 4/2 (80%) (Table 2, 75 DAA, 20 g ai/ha): 0.0% | Frequency 4/3 (90%) (Table 2, 75 DAA, 20 g ai/ha): 0.0% | Frequency 4/4 (100%) (Table 2, 75 DAA, 20 g ai/ha): 0.0% | % Referring to Scale (Table 2, 90 DAA, 2 g ai/ha): 60.3% | Frequency 1/1 (0%) (Table 2, 90 DAA, 2 g ai/ha): 0.0% | Frequency 2/1 (15%) (Table 2, 90 DAA, 2 g ai/ha): 0.0% | Frequency 3/1 (30%) (Table 2, 90 DAA, 2 g ai/ha): 20.0% | Frequency 4/1 (50%) (Table 2, 90 DAA, 2 g ai/ha): 32.5% | Frequency 4/2 (80%) (Table 2, 90 DAA, 2 g ai/ha): 47.5% | Frequency 4/3 (90%) (Table 2, 90 DAA, 2 g ai/ha): 0.0% | Frequency 4/4 (100%) (Table 2, 90 DAA, 2 g ai/ha): 0.0% | % Referring to Scale (Table 2, 90 DAA, 5 g ai/ha): 43.5% | Frequency 1/1 (0%) (Table 2, 90 DAA, 5 g ai/ha): 0.0% | Frequency 2/1 (15%) (Table 2, 90 DAA, 5 g ai/ha): 0.0% | Frequency 3/1 (30%) (Table 2, 90 DAA, 5 g ai/ha): 32.5% | Frequency 4/1 (50%) (Table 2, 90 DAA, 5 g ai/ha): 67.5% | Frequency 4/2 (80%) (Table 2, 90 DAA, 5 g ai/ha): 0.0% | Frequency 4/3 (90%) (Table 2, 90 DAA, 5 g ai/ha): 0.0% | Frequency 4/4 (100%) (Table 2, 90 DAA, 5 g ai/ha): 0.0% | % Referring to Scale (Table 2, 90 DAA, 7 g ai/ha): 44.8% | Frequency 1/1 (0%) (Table 2, 90 DAA, 7 g ai/ha): 0.0% | Frequency 2/1 (15%) (Table 2, 90 DAA, 7 g ai/ha): 0.0% | Frequency 3/1 (30%) (Table 2, 90 DAA, 7 g ai/ha): 37.5% | Frequency 4/1 (50%) (Table 2, 90 DAA, 7 g ai/ha): 55.0% | Frequency 4/2 (80%) (Table 2, 90 DAA, 7 g ai/ha): 7.5% | Frequency 4/3 (90%) (Table 2, 90 DAA, 7 g ai/ha): 0.0% | Frequency 4/4 (100%) (Table 2, 90 DAA, 7 g ai/ha): 0.0% | % Referring to Scale (Table 2, 90 DAA, 10 g ai/ha): 37.4% | Frequency 1/1 (0%) (Table 2, 90 DAA, 10 g ai/ha): 0.0% | Frequency 2/1 (15%) (Table 2, 90 DAA, 10 g ai/ha): 7.5% | Frequency 3/1 (30%) (Table 2, 90 DAA, 10 g ai/ha): 50.0% | Frequency 4/1 (50%) (Table 2, 90 DAA, 10 g ai/ha): 42.5% | Frequency 4/2 (80%) (Table 2, 90 DAA, 10 g ai/ha): 0.0% | Frequency 4/3 (90%) (Table 2, 90 DAA, 10 g ai/ha): 0.0% | Frequency 4/4 (100%) (Table 2, 90 DAA, 10 g ai/ha): 0.0% | % Referring to Scale (Table 2, 90 DAA, 15 g ai/ha): 39.8% | Frequency 1/1 (0%) (Table 2, 90 DAA, 15 g ai/ha): 0.0% | Frequency 2/1 (15%) (Table 2, 90 DAA, 15 g ai/ha): 15.0% | Frequency 3/1 (30%) (Table 2, 90 DAA, 15 g ai/ha): 25.0% | Frequency 4/1 (50%) (Table 2, 90 DAA, 15 g ai/ha): 60.0% | Frequency 4/2 (80%) (Table 2, 90 DAA, 15 g ai/ha): 0.0% | Frequency 4/3 (90%) (Table 2, 90 DAA, 15 g ai/ha): 0.0% | Frequency 4/4 (100%) (Table 2, 90 DAA, 15 g ai/ha): 0.0% | % Referring to Scale (Table 2, 90 DAA, 20 g ai/ha): 46.0% | Frequency 1/1 (0%) (Table 2, 90 DAA, 20 g ai/ha): 0.0% | Frequency 2/1 (15%) (Table 2, 90 DAA, 20 g ai/ha): 5.0% | Frequency 3/1 (30%) (Table 2, 90 DAA, 20 g ai/ha): 30.0% | Frequency 4/1 (50%) (Table 2, 90 DAA, 20 g ai/ha): 52.5% | Frequency 4/2 (80%) (Table 2, 90 DAA, 20 g ai/ha): 12.5% | Frequency 4/3 (90%) (Table 2, 90 DAA, 20 g ai/ha): 0.0% | Frequency 4/4 (100%) (Table 2, 90 DAA, 20 g ai/ha): 0.0% | % Referring to Scale (Table 2, 120 DAA, 2 g ai/ha): 95.8% | Frequency 1/1 (0%) (Table 2, 120 DAA, 2 g ai/ha): 0.0% | Frequency 2/1 (15%) (Table 2, 120 DAA, 2 g ai/ha): 0.0% | Frequency 3/1 (30%) (Table 2, 120 DAA, 2 g ai/ha): 0.0% | Frequency 4/1 (50%) (Table 2, 120 DAA, 2 g ai/ha): 0.0% | Frequency 4/2 (80%) (Table 2, 120 DAA, 2 g ai/ha): 5.0% | Frequency 4/3 (90%) (Table 2, 120 DAA, 2 g ai/ha): 32.5% | Frequency 4/4 (100%) (Table 2, 120 DAA, 2 g ai/ha): 62.5% | % Referring to Scale (Table 2, 120 DAA, 5 g ai/ha): 96.5%

Reference: patent publication US20240138411A1, “METHOD OF […] OF SUGARCANE” (CORTEVA AGRISCIENCE LLC, priority 2021, published 2024)
